According to US12202849B2, “Crystalline forms of tenofovir alafenamide” (Gilead Sciences, Inc., priority 2017, dated 2025):

Conditions: deionized water, approximately 22° C., room temperature
Protocol: In a vial that contains pre-weighed amount of solid, deionized water was added in small increments at approximately 22° C. The solid/liquid mixture was agitated by a vortex mixer and held at room temperature. Continued to add deionized water and repeated the mixing until the solid was fully dissolved.

Substance: tenofovir alafenamide hemifumarate [TAF Hemifumarate]
- Solubility: 20 mg/mL
